Columns and labels:
[1] = target: T1, Egl nine homolog 1 (Homo sapiens, UniProt Q9GZT9); assay: Inhibition of FLAG-tagged full length PHD2 (unknown origin) expressed in Sf9 cells using HIF-1alpha peptide as substrate preincubated for 30 mins followed by substrate addition measured after 2 hrs by HTRF assay in presence of 2-oxoglutarate
Target sequence in this assay (Q9GZT9 whole entry): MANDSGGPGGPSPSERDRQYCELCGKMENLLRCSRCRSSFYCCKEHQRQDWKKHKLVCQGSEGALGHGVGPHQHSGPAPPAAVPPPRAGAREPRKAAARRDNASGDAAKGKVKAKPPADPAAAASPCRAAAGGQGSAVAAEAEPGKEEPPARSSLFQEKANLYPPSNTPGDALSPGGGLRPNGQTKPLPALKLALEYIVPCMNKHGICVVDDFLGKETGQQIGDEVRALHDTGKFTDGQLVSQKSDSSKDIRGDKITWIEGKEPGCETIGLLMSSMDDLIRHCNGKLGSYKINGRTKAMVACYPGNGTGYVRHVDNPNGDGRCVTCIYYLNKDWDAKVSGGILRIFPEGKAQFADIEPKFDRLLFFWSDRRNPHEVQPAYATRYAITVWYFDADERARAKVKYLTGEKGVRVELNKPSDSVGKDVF

[2] = target: T2, Prolyl hydroxylase EGLN3 (Homo sapiens, UniProt Q9H6Z9); assay: Inhibition of 6His-tagged PHD3 (1 to 239) (unknown origin)-mediated Cy5CODD hydroxylation expressed in Escherichia coli preincubated for 3 mins followed by substrate addition measured after 30 mins
[3] = target: T2, Prolyl hydroxylase EGLN3; assay: Inhibition of PHD3 in human Hep3B cells assessed as stimulation of EPO release after 48 hrs by ELISA; assay type: cell-based, Hep 3B2
[4] = target: T1, Egl nine homolog 1; assay: Inhibition of PHD2 (unknown origin) using P564 HIFlalpha as substrate after 1 hr by TR-FRET assay
Target sequence in this assay (Q9GZT9 whole entry): as above

[5] = target: T1, Egl nine homolog 1; assay: Inhibition of HIF-PH2 (unknown origin) expressed in insect Hi5 cells using [methoxycoumarin]-DLDLEALAPYIPADDDFQL-amide as substrate at 22 uM by [14]CO2 capture assay relative to control; details: BTI-TN-5B1-4
Target sequence in this assay (Q9GZT9 2-426 limits assumed): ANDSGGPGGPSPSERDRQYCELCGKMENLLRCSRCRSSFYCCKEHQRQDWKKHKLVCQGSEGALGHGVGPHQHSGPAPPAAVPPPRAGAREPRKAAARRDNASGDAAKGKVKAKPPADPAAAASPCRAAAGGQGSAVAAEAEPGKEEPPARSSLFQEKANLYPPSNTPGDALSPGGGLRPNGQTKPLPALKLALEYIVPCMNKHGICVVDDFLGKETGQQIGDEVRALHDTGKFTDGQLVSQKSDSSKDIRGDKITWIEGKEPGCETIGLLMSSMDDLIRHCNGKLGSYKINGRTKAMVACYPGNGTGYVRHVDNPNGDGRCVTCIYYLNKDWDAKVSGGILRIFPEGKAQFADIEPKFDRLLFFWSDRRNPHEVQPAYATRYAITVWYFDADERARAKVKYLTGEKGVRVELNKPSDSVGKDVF

[6] = target: T1, Egl nine homolog 1; assay: Inhibition of HIF-PH2 (unknown origin) expressed in insect Hi5 cells using [methoxycoumarin]-DLDLEALAPYIPADDDFQL-amide as substrate at 7.4 uM by [14]CO2 capture assay relative to control; details: BTI-TN-5B1-4
Target sequence in this assay (Q9GZT9 2-426 limits assumed): as above

[7] = system: Homo sapiens; assay: Antianemic activity in chronic kidney disease patient assessed as increase in hemoglobin level at 6 to 20 mg/kg administered twice weekly for 4 weeks relative to control; assay type: functional; details: dose mg/kg 6-20
[8] = system: Homo sapiens; assay: Antianemic activity in chronic kidney disease patient assessed as increase in hemoglobin level at 1250 mg, po administered twice weekly for 15 weeks (reference value: 0.2 g/dl); assay type: functional
[9] = system: Homo sapiens; assay: Antianemic activity in chronic kidney disease patient assessed as increase in hemoglobin level at 625 mg, po administered twice weekly for 15 weeks (reference value: 0.2 g/dl); assay type: functional
[10] = system: Homo sapiens; assay: Antianemic activity in chronic kidney disease patient assessed as increase in hemoglobin level at 375 mg, po administered twice weekly for 15 weeks (reference value: 0.2 g/dl); assay type: functional
[11] = system: Homo sapiens; assay: Antianemic activity in chronic kidney disease patient assessed as increase in hemoglobin level at 1250 mg, po administered twice weekly for 15 weeks measured after 4 weeks relative to control; assay type: functional
[12] = system: Homo sapiens; assay: Antianemic activity in chronic kidney disease patient assessed as increase in hemoglobin level at 625 mg, po administered twice weekly for 15 weeks measured after 4 weeks relative to control; assay type: functional
[13] = system: Homo sapiens; assay: Antianemic activity in chronic kidney disease patient assessed as increase in hemoglobin level at 375 mg, po administered twice weekly for 15 weeks measured after 4 weeks relative to control; assay type: functional
[14] = system: Homo sapiens; assay: Increase in plasma EPO level in human at 20 mg/kg, po administered for 7 days relative to control; assay type: functional
[15] = system: Homo sapiens; assay: Increase in plasma EPO level in anephric end stage renal disease patient at 20 mg/kg, po administered for 7 days relative to control; assay type: functional
[16] = system: Homo sapiens; assay: Increase in plasma EPO level in nephric end stage renal disease patient at 20 mg/kg, po administered for 7 days relative to control; assay type: functional
[17] = system: Homo sapiens; assay: Antianemic activity in chronic kidney disease patient assessed as increase in hemoglobin level at 20 mg/kg, po administered 3 times per week for 4 weeks (reference value: 0.35 g/dL); assay type: functional
[18] = target: T2, Prolyl hydroxylase EGLN3; assay: Inhibition of full length human recombinant EGLN-3 using DLDLEALAPYIPADDDFQL as substrate after 20 mins by mass spectrophotometric analysis
[19] = target: T1, Egl nine homolog 1; assay: Inhibition of human recombinant EGLN-1 using DLDLEALAPYIPADDDFQL as substrate after 20 mins by mass spectrophotometric analysis
Target sequence in this assay (Q9GZT9 whole entry): as the sequence (Q9GZT9 whole entry) above

[20] = system: Homo sapiens; assay: Antianemic activity in human assessed as change in hemoglobin level administered thrice weekly for 12 weeks; assay type: functional
[21] = system: Homo sapiens; assay: Reduction in total cholesterol level in chronic kidney disease patient administered for 16 to 24 weeks relative to control; assay type: functional; set-up: scale not given: the % may be the effect or the level left
[22] = system: Homo sapiens; assay: Antianemic activity in nondialysis chronic kidney disease patient assessed as increase in hemoglobin level at 60 to 150 mg administered twice/thrice weekly for 16 to 24 weeks; assay type: functional
[23] = system: Homo sapiens; assay: Antianemic activity in end stage renal disease patient receiving hemodialysis assessed as increase in hemoglobin level at 1.5 to 2 mg/kg, po administered thrice weekly for 6 weeks relative to control; assay type: functional; details: dose mg/kg 1.5-2
[24] = system: Homo sapiens; assay: Antianemic activity in chronic kidney disease patient assessed as hemoglobin level administered for 4 weeks; assay type: functional
[25] = target: T2, Prolyl hydroxylase EGLN3; assay: Inhibition of 6His-tagged PHD3 (1 to 239) (unknown origin)-mediated Cy5CODD hydroxylation expressed in Escherichia coli after 30 mins
[26] = system: Hep 3B2; assay: Inhibition of prolyl hydroxylase in human Hep3B cells assessed as stimulation of EPO release at 100 uM after 24 hrs relative to control; assay type: cell-based; set-up: scale not given: the % may be the effect or the level left
[27] = system: Mus musculus; assay: Suppression of TNBS-induced colitis in mouse assessed as increase in hematocrit at 1 to 5 mg/kg, po after 7 days relative to control; assay type: functional; details: dose mg/kg 1-5
[28] = target: T1, Egl nine homolog 1; assay: Inhibition of PHD2 in HEK293 cells assessed as VEGF release by immunoassay; assay type: cell-based
Target sequence in this assay (Q9GZT9 whole entry): as above

[29] = Inhibition of prolyl hydroxylase (unknown origin) using biotin-labeled DLDLEMLAPYIPMDDDFQL as substrate after 60 mins by FRET assay; set-up: species or system Homo sapiens

T2 sequence (Q9H6Z9 whole entry): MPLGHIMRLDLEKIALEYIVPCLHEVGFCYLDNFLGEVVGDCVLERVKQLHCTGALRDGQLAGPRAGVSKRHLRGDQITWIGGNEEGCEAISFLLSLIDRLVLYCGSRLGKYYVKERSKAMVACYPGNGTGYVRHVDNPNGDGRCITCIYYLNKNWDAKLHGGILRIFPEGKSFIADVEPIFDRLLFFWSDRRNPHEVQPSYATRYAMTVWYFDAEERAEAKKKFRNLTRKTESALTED

Question: With `Cc1cccc(CN2CCC3(CC2)C(=O)N(c2ccc(-c4ccccc4)cc2)c2ccc(C(=O)O)cc23)n1` as the compound, how does the IC50 [1] read?
Answer: The IC50 was 0.7 nM.

Question: Which IC50 [2] does the source give for `COc1ccc(-n2c(=O)[nH]c3cc(C(=O)NCc4ccc(Cl)cc4)ncc3c2=O)nc1OC` here?
Answer: The IC50 was 1 nM.

Question: And the EC50 [3]?
Answer: Its EC50 is 1000 nM.

Question: With `O=C(O)CNC(=O)C1=C(O)c2ccc(Cl)cc2C2(CCOCC2)C1=O` as the compound, how does the IC50 [4] read?
Answer: Its IC50 is less than 100 nM.

Question: Which results are given for `COc1ccc(-n2c(=O)[nH]c3cc(C(=O)NCc4ccc5c(c4)OCO5)sc3c2=O)nc1OC`?
Answer: IC50 [2]: 1 nM; EC50 [3]: 1000 nM

Question: With `O=C(O)CNC(=O)c1c(O)c(Br)cc2c1ncn2Cc1ccccc1` as the compound, how does the IC50 [2] read?
Answer: Its IC50 is 1 nM.

Question: With `O=C(O)CNC(=O)c1c(O)ccc2cc(-c3ccccc3)cnc12` as the compound, how does the IC50 [2] read?
Answer: Its IC50 is 1 nM.

Question: With `O=C(O)CNC(=O)c1c(O)c2c(Cl)c(Cl)c(Cl)n2n(Cc2ccccc2)c1=O` as the compound, how does the inhibition [5] read?
Answer: Its inhibition is 99%.

Question: For `O=C(O)CNC(=O)c1c(O)c2cc(Cl)cc(C#Cc3ccccc3)c2sc1=O`, which inhibition [6] is on record?
Answer: Its inhibition is 99%.

Question: With `O=C(O)CNC(=O)c1nc(Cl)c2ccccc2c1O` as the compound, how does the Activity [7] read?
Answer: The Activity was 1.3 g/dL.

Question: And the Activity [8]?
Answer: Its Activity is 2.4 g/dL.

Question: What about the Activity [9] of the same compound?
Answer: Its Activity is 1.4 g/dL.

Question: What about the Activity [10] of the same compound?
Answer: The Activity was 1.1 g/dL.

Question: And the Activity [11]?
Answer: The Activity was 76%.

Question: What about the Activity [12] of the same compound?
Answer: Its Activity is 60%.

Question: What about the Activity [13] of the same compound?
Answer: Its Activity is 50%.

Question: What about the “fold change (FC)” value [14] of the same compound?
Answer: Its value is 12.7.

Question: What about the “fold change (FC)” value [15] of the same compound?
Answer: The value was 14.5.

Question: What about the “fold change (FC)” value [16] of the same compound?
Answer: The value was 30.8.

Question: What about the Activity [17] of the same compound?
Answer: The Activity was 1.9 g/dL.

Question: For `O=C(O)CNC(=O)c1ccc(-c2ccc3ccccc3c2)cn1`, which IC50 [18] is on record?
Answer: The IC50 was greater than 500000 nM.

Question: What about the IC50 [19] of the same compound?
Answer: Its IC50 is greater than 500000 nM.

Question: For `Cc1nc(C(=O)NCC(=O)O)c(O)c2ccc(Oc3ccccc3)cc12` [ROXADUSTAT], which Activity [20] is on record?
Answer: Its Activity is 2.1 g/dL.

Question: And the Activity [21]?
Answer: Its Activity is -20%.

Question: What about the Activity [22] of the same compound?
Answer: Its Activity is 1.4 g/dL.

Question: And the Activity [23]?
Answer: The Activity was 1 g/dL.

Question: What about the Activity [24] of the same compound?
Answer: Its Activity is 1 g/dL.

Question: For `N#Cc1ccccc1Cn1c(=O)c(C(=O)NCC(=O)O)c(O)n(Cc2ccccc2)c1=O`, which EC50 [3] is on record?
Answer: The EC50 was 400 nM.

Question: And the IC50 [25]?
Answer: Its IC50 is 0.8 nM.

Question: With `O=C(O)CNC(=O)c1c(O)c2c(n(Cc3ccc(C(F)(F)F)cc3)c1=O)CN(C(=O)C1CC1)C2` as the compound, how does the IC50 [1] read?
Answer: Its IC50 is less than 10 nM.

Question: With `Cc1ccccc1-c1ccc2nc(-n3cc(C(=O)O)cn3)[nH]c(=O)c2c1` as the compound, how does the Activity [26] read?
Answer: The Activity was 60%.

Question: With `O=C(O)CNC(=O)c1c(O)c2c(n(Cc3ccc(C(F)(F)F)cc3)c1=O)CSC2` as the compound, how does the IC50 [1] read?
Answer: The IC50 was less than 10 nM.

Question: For `O=C(O)CCC(=O)C1=C(O)c2ccc(Cl)cc2C2(CCOCC2)C1=O`, which IC50 [4] is on record?
Answer: Its IC50 is less than 100 nM.

Question: Which IC50 [18] does the source give for `O=C(O)CNC(=O)c1ncc(-c2ccc3ccccc3c2)cc1O` here?
Answer: Its IC50 is 17 nM.

Question: What about the IC50 [19] of the same compound?
Answer: Its IC50 is 17 nM.

Question: With `O=C(O)CNC(=O)c1c(O)c2cc(-c3ccc(Oc4ccccc4)cc3)ccc2oc1=O` as the compound, how does the inhibition [6] read?
Answer: The inhibition was 100%.

Question: For `CC(C)(C)OC(=O)N1CCN(Cc2ccn(Cc3ccc(Cl)cc3)c(=O)c2O)CC1` [IZILENDUSTAT], which Activity [27] is on record?
Answer: Its Activity is 2%.

Question: What about the EC50 [28] of the same compound?
Answer: The EC50 was 17000 nM.

Question: With `O=C(O)CNC(=O)c1c(O)c(C(=O)NCc2ccccc2)c(O)n(Cc2ccccc2)c1=O` as the compound, how does the EC50 [3] read?
Answer: The EC50 was 1 nM.

Question: With `O=c1c(-c2cccnc2)c[nH]n1-c1cc(N2CCCCC2)ncn1` as the compound, how does the IC50 [29] read?
Answer: Its IC50 is less than 30000 nM.
